Patent publication US20250257034A1, “INDOLE DERIVATIVES AS SEROTONERGIC AGENTS USEFUL FOR THE TREATMENT OF DISORDERS RELATED THERETO” (priority 2023, published 2025)
Values joined by “and” are separate entries in the source; they are usually repeats but may differ in a detail not shown here. Equal entries are not always repeated.

Experiments:
Type in all cases: in vitro ADME
[1] = Human liver microsomes stability; details: for CLint (μL/min/mg protein) / t1/2: 2 μM compound
Protocol: (§1) The objective of this study was to estimate in vitro metabolic stability of exemplary compounds of Formula (I) or a pharmaceutically acceptable salt, solvate, and/or prodrug thereof in pooled human, male rat, and male mouse liver microsomes. The concentrations of compounds in reaction systems were evaluated by LC-MS/MS for estimating the stability in pooled human, male rat, and male mouse liver microsomes. The in vitro intrinsic clearances of test compounds were determined as well.
(§2) A master solution in the “Incubation Plate” containing phosphate buffer, ultra-pure H2O, MgCl2 solution and liver microsomes was made according to Table 33. The mixture was pre-warmed at 37° C. water bath for 5 minutes.
(§3) 40 μL of 10 mM nicotinamide adenine dinucleotide phosphate (NADPH) solution was added to each well. The final concentration of NADPH was 1 mM. The negative control samples were prepared by replacing NADPH with 40 μL of ultra-pure H2O. Samples were prepared in duplicate. Negative controls were prepared in singlet.
(§4) The reaction was started with the addition of 4 μL of 200 μM exemplary test compounds of the disclosure or control compounds to each master solution to get the final concentration of 2 μM. This study was performed in duplicate.
(§5) Aliquots of 50 μL were taken from the reaction solution at 0, 15, 30, 45, and 60 minutes. The reaction solutions were stopped by the addition of 4 volumes of cold methanol with IS (100 nM alprazolam, 200 nM imipramine, 200 nM labet alol and 2 μM ketoprofen). Samples were centrifuged at 3,220 g for 40 minutes. Aliquot of 90 μL of the supernatant was mixed with 90 μL of ultra-pure H2O and then was used for LC-MS/MS analysis.
(§6) LC/MS analysis was performed for all samples from this study using a Shimadzu liquid chromatograph separation system equipped with degasser DGU-20A5R; solvent delivery unit LC-30AD; system controller SIL-30AC; column oven CTO-30A; CTC Analytics HTC PAL System. Mass spectrometric analysis was performed using a Triple Quad™ 5500 instrument.
(§7) All calculations were carried out using Microsoft Excel. Peak area ratios of test compound to internal standard (listed in the below table) were determined from extracted ion chromatograms.
(§8) All calculations were carried out using Microsoft Excel. Peak areas were determined from extracted ion chromatograms. The slope value, k, was determined by linear regression of the natural logarithm of the remaining percentage of the parent drug vs. incubation time curve.
(§9) The in vitro half-life (in vitro t1/2) was determined from the slope value:
(§10) Conversion of the in vitro t1/2(min) into the in vitro intrinsic clearance (in vitro CLint, in μL/min/mg proteins) was done using the following equation (mean of duplicate determinations): […]
(§11) A master solution in the “Incubation Plate” containing phosphate buffer, ultra-pure H2O, MgCl2 solution and liver microsomes was made according to Table 63. The mixture was pre-warmed at 37° C. water bath for 5 minutes.
(§12) 40 μL of 10 mM NADPH solution was added to each well. The final concentration of NADPH was 1 mM. The negative control samples were prepared by replacing NADPH with 40 μL of ultra-pure H2O. Samples were prepared in duplicate. Negative controls were prepared in singlet.
(§13) Conversion of the in vitro t1/2(min) into the in vitro intrinsic clearance (in vitro C Lt, in μL/min/mg proteins) was done using the following equation (mean of duplicate determinations): […]

[2] = Mouse liver microsomes stability; details: for microsomal CLint at 2 μM: mouse, read-out: CLint (μL/min/mg protein)
Protocol: as §1, §2, §3, §4, §5, §6, §7, §8, §9, §10, §11, §12, §13

[3] = Rat liver microsomes stability; details: for CLint (μL/min/mg protein) / t1/2 / half-life at 2 μM / microsomal CLint at 2 μM: 2 μM compound; for half-life at 2 μM / microsomal CLint at 2 μM: male, rat; for microsomal CLint at 2 μM: read-out: CLint (μL/min/mg protein)
Protocol: as §1, §2, §3, §4, §5, §6, §7, §8, §9, §10, §11, §12, §13

[4] = human liver microsomes, 0.5 mg/mL
[5] = human liver microsomes, With Cofactors, 0 min
[6] = human liver microsomes, With Cofactors, 30 min
[7] = human liver microsomes, With Cofactors, 60 min
[8] = human liver microsomes, Without Cofactors, 0 min
[9] = human liver microsomes, Without Cofactors, 30 min
[10] = human liver microsomes, Without Cofactors, 60 min
[11] = mouse liver microsomes, 2 μM compound, 0.5 mg/mL
[12] = mouse liver microsomes, With Cofactors, 0 min
[13] = mouse liver microsomes, With Cofactors, 30 min
[14] = mouse liver microsomes, With Cofactors, 60 min
[15] = mouse liver microsomes, Without Cofactors, 0 min
[16] = mouse liver microsomes, Without Cofactors, 30 min
[17] = mouse liver microsomes, Without Cofactors, 60 min
[18] = Rat liver microsomes, 0.5 mg/mL microsomes, 1 mM NADPH
[19] = Rat liver microsomes, 0.5 mg/mL microsomes, 1 mM NADPH, 37° C
[20] = rat liver microsomes, 0.5 mg/mL
[21] = rat liver microsomes, With Cofactors, 0 min
[22] = rat liver microsomes, With Cofactors, 30 min
[23] = rat liver microsomes, With Cofactors, 60 min
[24] = rat liver microsomes, Without Cofactors, 0 min
[25] = rat liver microsomes, Without Cofactors, 30 min
[26] = rat liver microsomes, Without Cofactors, 60 min
[27] = pooled liver microsomes, rat liver microsomes, 0.5 mg/mL

COc1ccc2[nH]cc(CCN(C)C)c2c1 [Compound 5-MeO-DMT]
Predicted hepatic CL ([1]; Human liver microsomes): 18.09 mL/min/kg | Scaled-up CLint ([1]; Human liver microsomes): 143.22 mL/min/kg | CLint (μL/min/mg protein) ([1]; Human liver microsomes, 0.5 mg/mL microsomes, 1 mM NADPH): 114.19 μL/min/mg protein | t1/2 ([1]; Human liver microsomes, 0.5 mg/mL microsomes, 1 mM NADPH, 37° C): 12.14 min | Predicted hepatic CL ([1]; human liver microsomes): 18.09 mL/min/kg | Scaled-up CLint ([1]; human liver microsomes): 143.22 mL/min/kg | CLint (μL/min/mg protein) [1, 4]: 114.19 μL/min/mg protein | t1/2 [1, 4]: 12.14 min | Remaining Percentage (%) [1, 5]: 100.00% | Remaining Percentage (%) [1, 6]: 19.24% | Remaining Percentage (%) [1, 7]: 3.25% | Remaining Percentage (%) [1, 8]: 100.00% | Remaining Percentage (%) [1, 9]: 18.58% | Remaining Percentage (%) [1, 10]: 3.00% | Predicted hepatic CL ([2]; Mouse liver microsomes): 54.19 mL/min/kg | Scaled-up CLint ([2]; Mouse liver microsomes): 136.21 mL/min/kg | CLint (μL/min/mg protein) ([2]; Mouse liver microsomes, 2 μM compound, 0.5 mg/mL microsomes, 1 mM NADPH): 31.13 μL/min/mg protein | t1/2 ([2]; Mouse liver microsomes, 2 μM compound, 0.5 mg/mL microsomes, 1 mM NADPH, 37° C): 44.52 min | Predicted hepatic CL ([2]; mouse liver microsomes): 54.19 mL/min/kg | Scaled-up CLint ([2]; mouse liver microsomes): 136.21 mL/min/kg | CLint (μL/min/mg protein) [2, 11]: 31.13 μL/min/mg protein | t1/2 [2, 11]: 44.52 min | Remaining Percentage (%) [2, 12]: 100.00% | Remaining Percentage (%) [2, 13]: 61.84% | Remaining Percentage (%) [2, 14]: 39.30% | Remaining Percentage (%) [2, 15]: 100.00% | Remaining Percentage (%) [2, 16]: 104.76% | Remaining Percentage (%) [2, 17]: 95.24% | Predicted hepatic CL ([3]; Rat liver microsomes): 49.02 mL/min/kg | Scaled-up CLint ([3]; Rat liver microsomes): 437.56 mL/min/kg | CLint (μL/min/mg protein) [3, 18]: 244.17 μL/min/mg protein | t1/2 [3, 19]: 5.68 min | Predicted hepatic CL ([3]; rat liver microsomes): 49.02 mL/min/kg | Scaled-up CLint ([3]; rat liver microsomes): 437.56 mL/min/kg | CLint (μL/min/mg protein) [3, 20]: 244.17 μL/min/mg protein | t1/2 [3, 20]: 5.68 min | Remaining Percentage (%) [3, 21]: 100.00% | Remaining Percentage (%) [3, 22]: 2.57% | Remaining Percentage (%) [3, 23]: 0.36% | Remaining Percentage (%) [3, 24]: 100.00% | Remaining Percentage (%) [3, 25]: 49.55% | Remaining Percentage (%) [3, 26]: 23.82%

O=C(O)Cc1ccccc1Nc1c(Cl)cccc1Cl [Diclofenac]
Predicted hepatic CL ([1]; Human liver microsomes): 18.38 mL/min/kg and 18.35 mL/min/kg | Predicted hepatic CL ([1]; human liver microsomes): 18.44 mL/min/kg and 18.35 mL/min/kg | Remaining Percentage (%) [1, 5]: 100.00% | Remaining Percentage (%) [1, 6]: 5.01% | Remaining Percentage (%) [1, 7]: 1.77% | Remaining Percentage (%) [1, 8]: 100.00% | Remaining Percentage (%) [1, 9]: 112.67% | Remaining Percentage (%) [1, 10]: 96.67% | Predicted hepatic CL ([2]; Mouse liver microsomes): 54.78 mL/min/kg and 56.11 mL/min/kg | microsomal CLint at 2 μM ([2]; male, liver microsomes, Mouse liver microsomes, 2 μM compound, 0.5 mg/mL microsomes, 1 mM NADPH): 32 µL/min/mg | microsomal CLint at 2 μM ([2]; male, pooled liver microsomes, mouse liver microsomes, 2 μM compound, 0.5 mg/mL): 32 µL/min/mg | half-life at 2 μM ([2]; male, Mouse liver microsomes, 2 μM compound, 0.5 mg/mL microsomes, 1 mM NADPH, 37° C): 40.7 min | Predicted hepatic CL ([2]; mouse liver microsomes): 54.78 mL/min/kg and 57.42 mL/min/kg | Scaled-up CLint ([2]; mouse liver microsomes): 158.60 mL/min/kg | CLint (μL/min/mg protein) [2, 11]: 36.25 μL/min/mg protein | t1/2 [2, 11]: 38.23 min | Remaining Percentage (%) [2, 12]: 100.00% | Remaining Percentage (%) [2, 13]: 45.55% | Remaining Percentage (%) [2, 14]: 33.71% | Remaining Percentage (%) [2, 15]: 100.00% | Remaining Percentage (%) [2, 16]: 89.49% | Remaining Percentage (%) [2, 17]: 96.59% | Predicted hepatic CL ([3]; Rat liver microsomes): 41.22 mL/min/kg and 41.25 mL/min/kg | CLint (μL/min/mg protein) [3, 18]: 91.05 μL/min/mg protein | t1/2 [3, 19]: 15.22 min | half-life at 2 μM ([3]; liver microsomes, Rat liver microsomes, 0.5 mg/mL microsomes, 1 mM NADPH, 37° C): 15.3 min | microsomal CLint at 2 μM ([3]; liver microsomes, Rat liver microsomes, 0.5 mg/mL microsomes, 1 mM NADPH): 90.8 µL/min/mg | half-life at 2 μM [3, 27]: 15.1 min | microsomal CLint at 2 μM [3, 27]: 91.9 µL/min/mg | Predicted hepatic CL ([3]; rat liver microsomes): 41.34 mL/min/kg and 41.25 mL/min/kg | CLint (μL/min/mg protein) [3, 20]: 91.05 μL/min/mg protein | t1/2 [3, 20]: 15.22 min | Remaining Percentage (%) [3, 21]: 100.00% | Remaining Percentage (%) [3, 22]: 11.86% | Remaining Percentage (%) [3, 23]: 6.35% | Remaining Percentage (%) [3, 24]: 100.00% | Remaining Percentage (%) [3, 25]: 102.19% | Remaining Percentage (%) [3, 26]: 100.63%
